According to patent US5959109A, “Compounds and methods for increasing endogenous levels of corticotropin-releasing factor” (Neurocrine Biosciences, Inc., priority 1996, dated 1999):
Ends that are not written are not given here.

How the values were obtained:
CRF/CRF-BP complexes [1] = experiment: ELISA of CRF/CRF-BP complex in NP-40 solubilized cerebrocortical brain tissue (FIG. 3); assay type: binding, human; conditions: post-mortem controls and Alzheimer's disease patients
Protocol: FIG. 3 is a graph displaying the results of ELISAs testing the ability of a representative ligand inhibitor, Compound No. 35, to displace endogenous CRF from CRF-BP in brain tissue from Alzheimer's disease patients and normal controls.
Another ligand inhibitor, Compound No. 35, was tested for its ability to inhibit CRF/CRF-BP complexes in NP-40 solubilized human cerebrocortical brain tissue obtained postmortem from controls and Alzheimer disease patients. Briefly, 0.1-0.5 g of brain tissue was homogenized in phosphate-buffered saline containing 0.2% NP-40. The homogenate was clarified by centrifugation at 3000×g for 10 minutes. Supernatants were assayed by ELISA for the formation of CRF/CRF-BP complex in the presence or absence of Compound No. 35.

human recombinant CRF-BP = target: T1, human recombinant CRF-BP (Homo sapiens, UniProt P24387); experiment: LIRMA: displacement of 125I-h/rCRF from CRF-BP, Ki; assay type: binding; conditions: inhibitory binding affinity constant (Ki)
T1 construct: made in house
T1 sequence (P24387 25-322): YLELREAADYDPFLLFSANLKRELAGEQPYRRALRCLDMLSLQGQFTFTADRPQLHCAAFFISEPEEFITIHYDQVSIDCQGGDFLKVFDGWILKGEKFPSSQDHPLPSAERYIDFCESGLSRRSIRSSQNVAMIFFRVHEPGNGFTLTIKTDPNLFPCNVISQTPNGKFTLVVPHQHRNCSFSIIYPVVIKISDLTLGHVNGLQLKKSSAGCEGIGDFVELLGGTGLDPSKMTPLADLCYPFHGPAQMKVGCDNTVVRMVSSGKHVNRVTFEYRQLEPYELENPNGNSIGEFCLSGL
Protocol: In LIRMA CRF-BP isolated from brain tissue, serum, or cells expressing a recombinant form, is added to wells of a 96-well plate, to small polypropylene microfuge tubes, or to glass borosilicate tubes in a binding buffer (0.02% NP-40 in 50 mM phosphate-buffered saline). ^125 I-h/rCRF (New England Nuclear) and the candidate ligand inhibitor at 10 μM are added and the reaction is incubated for 1 hour at room temperature. An appropriately diluted anti-CRF-BP antibody, such as a rabbit anti-hCRF-BP (Potter et al., Proc. Natl. Acad. Sci. USA 89:4192-4196, 1992) is added to each tube, and after further incubation, bound complexes are precipitated by the further addition of a goat anti-rabbit antibody. The precipitate containing ^125 I-CRF is collected by centrifugation and the amount of radioactivity in the pellet is determined by a gamma counter. If the candidate ligand inhibitor displaces CRF from CRF-BP, the pellets will contain less radioactivity in comparison to controls in which no candidate peptide is added. Maximum inhibition (i.e., 100%) of the binding of ^125 I-h/rCRF to the CRF-BP is defined by the amount of radioactivity left in the pellets after incubation with 10 μM of the CRF-BP peptide ligand h/rCRF (6-33). Thus, the binding potency of the candidate ligand inhibitor will be measured relative to the potency of the standard h/rCRF (6-33).
Thus, a ligand having a Ki of less than that of hCRF will bind more strongly to hCRF-BP than will hCRF itself, and a ligand having a higher value will have a relatively lower binding affinity.
The assay is performed in 600 μl polypropylene microfuge tubes or a 96-well plate. First, 50 μl of a 250 ng/ml of purified recombinant CRF-BP is added to 150 μl of PBS binding buffer (50 mM sodium phosphate, 0.15M NaCl, and 0.02% NP-40). Next, ^125 I-h/r CRF at a final concentration of 200 pM and 50 μl of a 10-100 μM concentration of the ligand inhibitor are added and incubated for 1 hour at room temperature. To the reaction, 50 μl of anti-CRF-BP antibody, 5144, diluted 1:1000 with assay buffer is added to each tube and allowed to bind for a further 1 hour at room temperature. The total volume in all tubes is adjusted to 300 μl with assay buffer. Bound complexes are precipitated by the addition of 200 μl of preprecipitated goat anti-rabbit (GAR) second antibody at 1:20 in 1% normal rabbit serum, 4% PEG, 50 mM sodium phosphate, 0.1% sodium azide, followed by incubation for 1 hour at room temperature. The antibody-bound ^125 I-CRF precipitate is then collected by centrifugation (3000×g) at 4° C. for 20 minutes in a Beckman GS-15R centrifuge. Using a Beckman Biomer 1000 robotic workstation, the tubes are aspirated and washed once with 600 μl of PBS plus 0.02% NP-40. Tubes containing the pellets are then transferred to 12×74 mm counting tubes and counted in a gamma counter.
Inhibitory binding affinity constant (Ki) values are determined using the method of Munson et al., Anal. Biochem. 107:220, 1980.

[2] = Automated passive avoidance learning; assay type: in vivo, rat; conditions: oral, 5 minutes after training period; FIGS. 5A, 5B
Protocol: FIGS. 5A and 5B are graphs depicting the effect of administration of representative ligand inhibitors of this invention, Compound Nos. 97-1 and 153, respectively. The ligand inhibitors were administered 5 minutes post-training period in the passive avoidance test.
The apparatus for both rats and mice is the same as used in active avoidance testing (see Example 14).
For the training trial, the animal is placed individually in one compartment of the learning apparatus, which is separated from a second compartment by a guillotine door. Following a three minute habituation period, the door is opened and the latency to enter the second compartment is recorded. When the animal enters with all four paws, the door is closed, and a 0.5 second AC footshock (Coulburn precision shocker) is delivered. After five seconds, the subject is removed and placed in its home cage. At the time of testing (usually 1-7 days later), the animal is returned to the compartment in which it was initially placed for the learning trial, the door is opened and the latency to enter the second compartment is recorded, but the animal is not shocked. […]
For most strains of rats with weights between 150 and 350 grams, an effective footshock intensity ranges from 0.2-1.0 mA. […] The latency time of rats to enter the dark compartment is measured. […]

Morris water maze test = assay type: in vivo, rat; conditions: 1 or 20 mg/kg oral, 15 minutes prior to testing; FIGS. 4A, 4B
Protocol: As discussed in more detail below (see Example 6), 15 minutes prior to training on each of days 1-3, groups of animals orally receive control solution or a dosage of the ligand inhibitor. Control animals typically reach the platform within five to ten seconds after three days of training. The measure of the memory modulator effects of a ligand inhibitor is a shift of this time period. Administration of a ligand inhibitor results in a dose-dependent increase in availability of synaptic CRF and a behavioral dose-dependent increase in acquisition and memory retention.
The Morris Water Maze Test is a simple spatial learning task that requires a minimal amount of stress and experience. […] The latency time to find a hidden platform is monitored. […]
The apparatus used in this test is a pool (46.4 cm in diameter, 45.7 cm high) filled to a depth of 23 cm with opaque water (22° C.-25° C.). […] The animal is placed into a designated quadrant of the tank and the time to approach and ascend the hidden platform is measured; the location of subject placement and platform remain constant throughout the experiment. […]
Rats were treated by oral administration with either vehicle or 1 or 20 mg/kg of either Compound No. 1 or Compound No. 153 15 minutes prior to testing. The latency time to reach the platform in the Morris water maze was recorded for each group.

CRF receptors = conditions: rat, in vivo; cited from earlier work
Elevated plus-maze test = assay type: in vivo, rat; conditions: ICV
From the text: The Elevated plus-maze test predicts how animals respond to an approach-avoidance situation involving an exposed, lighted space versus a dark, enclosed area. In the maze, both spaces are elevated off the ground and constitute two runways intersecting in the form of a plus sign. This type of approach-avoidance situation is a classical test of "emotionality" and is very sensitive to treatments that produce disinhibition (such as sedative or hypnotic drugs) and stress. No motivational constraints are necessary and the animal is free to remain in the dark or venture out onto the open arms.
The elevated plus-maze apparatus has four arms (50 cm long, 10 cm wide) situated at right angles to each other and elevated from the floor (50 cm). Two of the arms are enclosed with walls (40 cm high) and two arms have no walls (open arms). Subjects are placed individually into the center of the maze and allowed free access to all four arms for a 5 minute testing period. The time spent in each arm is recorded automatically by photocell beams and a computer interface.
Groups of 7-10 rats receive ICV injections of the ligand inhibitor. For purposes of comparison, rats also receive 0 or 0.1-25 μg of h/rCRF (1-41).

human CRF-BP = conditions: cited from earlier work
[3] = cited from earlier work
CRF/CRF-BP complexes [4] = experiment: Disruption of CRF/CRF-BP complexes in human brain tissue in vitro; assay type: binding
From the text: Other peptide molecules, which are distinct from CRF, bind CRF-BP. For example, the human neuropeptide urocortin (Vaughan et al., Nature 378:287, 1995) has a high affinity for human CRF-BP. […] Thus, CRF-BP may be a modulator of a family of CRF-related peptides. […] Such disruption has the effect of increasing free CRF levels, thus making more CRF available for binding to its receptors. The ligand inhibitors of the present invention may also be used to elevate free levels of urocortin and other members of the CRF family in mammals. Assays for measuring the increase of urocortin (as well as other CRF-related peptides) are performed essentially as described herein for CRF, except that the appropriate detection molecules are employed (e.g., antibody to urocortin). Moreover, urocortin, sauvagine, urotensin, and the like and their analogues may be used to inhibit CRF/CRF-BP complexes and raise free CRF levels or inhibit urocortin/CRF-BP complexes and raise free urocortin levels.

[5] = cited from earlier work; remark: listed apart in the source

O=c1oc2ccc(Cl)cc2c(O)c1C=Nc1nc2ccccc2s1 [Compound 35]
inhibition of formation of CRF/CRF-BP complexes in brain tissue (CRF/CRF-BP complexes [1]): inhibits formation of CRF/CRF-BP complexes in brains of controls and Alzheimer's disease patients

O=c1c(C=Nc2nc3ccccc3[nH]2)c(O)n(CCCc2ccccc2)c(=S)n1CCCc1ccccc1 [Compound 97-1]
Ki (human recombinant CRF-BP): < 0.05 µM | latency time to entering the dark compartment [2]: increase in medium latency time

COc1ccc(Cn2c(O)c(C=Nc3ncc(C)s3)c(=O)n(Cc3ccc(OC)cc3OC)c2=S)c(OC)c1 [Compound 153]
latency time to reach the platform / performance (Morris water maze test): improved performance at each time interval | latency time to entering the dark compartment [2]: increase in medium latency time

CN1[C@@H]2CC[C@H]1C[C@@H](OC(=O)C(CO)c1ccccc1)C2 (stereo partly shown) [atropine]
CRF receptors after treatment (CRF receptors): increase in CRF receptors

human CRF: peptide that regulates the release of adrenocorticotropin (ACTH), β-endorphin, and other POMC-derived peptides from the pituitary
time on the open arms / performance (Elevated plus-maze test): significantly more time on the open arms, indicating increased anxiety | affinity for CRF-BP (human CRF-BP): high affinity | nocturnal food intake ([3]; rat, in vivo): significant decrease on nocturnal food intake | temperature response in brown adipose tissue ([3]; rat, in vivo): increased temperature response in brown adipose tissue | body weight ([3]; rats): lowered body weight in rats | carbachol-induced behaviors (CRF receptors): inhibits carbachol-induced behaviors

rat urocortin: rat urocortin (DDPPLSIDLTFHLLRTLLELARTQSQRERAEQNRIIFDSV; ends and bridges not checked; UniProt P55090 81-120, looked up)
disruption of CRF/CRF-BP complexes (CRF/CRF-BP complexes [4]): can disrupt the CRF/CRF-BP complexes

urocortin: the human neuropeptide urocortin (DNPSLSIDLTFHLLRTLLELARTQSQRERAEQNRIIFDSV; ends and bridges not checked; UniProt P55089 83-122, looked up)
affinity for CRF-BP (human CRF-BP): high affinity | feeding behavior ([5]; animals): significantly suppress feeding behavior in animals | blood pressure ([5]; in vivo): lowering blood pressure
